Structures can show the parent of a compound that is named as a salt.
Each compound was assayed against T1, CHOK1 cells engineered to overexpress human CCR2 (Homo sapiens, UniProt P41597) (assay: Antibody dependent cellular cytotoxicity (ADCC) reporter assay (Example 199)). Conditions: with anti-cotinine antibody SEQ ID NO: 11/12; CHOK1-human CCR2 target cells, Jurkat FcγRIIIa NFAT-luciferase reporter cells; 12-18 hours; read-out: ADCC Reporter Assay pEC50 (converted).
T1 construct: expressed in transfected cells; host or cells: CHOK1 cells
Format: cell-based
Method: An antibody dependent cellular cytoxicity reporter assay was conducted using the following four assay components: (i) ARM compound of Formula (I) targeting CCR2 (concentrations ranging from 1 pM to 10 μM) (ii) anti-cotinine antibody having a heavy chain sequence of SEQ ID NO: 11 and a light chain sequence of SEQ ID NO: 12 (rabbit variable region with human IgG1 Fc domain containing a DE mutation (S239D/1332E)) (concentrations ranging from 0.01 μg/mL to 200 μg/mL); (iii) target cells: CHOK1 cells engineered to overexpress either human CCR2 (typically 1000-20,000 cells per well) and (iv) reporter cells: Jurkat cells engineered to express FcγRIIIa with the reporter gene luciferase under the control of the NFAT promoter (typically 3000-75,000 cells per well). Reagents were combined in a final volume of 20 μL in a 384-well tissue culture treated plate. All four assay components were incubated together for about 12-18 hours. Thereafter, BioGlo Detection reagent (Promega) was added to the wells to lyse the cells and provide a substrate for the luciferase reporter protein. Luminescence signal was measured on a microplate reader and signal:background was calculated by dividing the signal of a test well by the signal obtained when no heterobivalent compound of Formula (I) was added. EC50 calculations were done using Graphpad Prism Software, specifically a nonlinear regression curve fit (Y=Bottom+(Top−Bottom)/(1+10^((Log EC50−X)*HillSlope))).
ARMs compounds of Formula (I) of the invention were tested for ADCC activity in the above assay in or more experimental runs and the results are shown in Table 3 below. Potency of the compounds of Formula (I) of the invention is reported as a pEC50 value. The pEC50 value is the negative log of the EC50 value, wherein the EC50 value is the half maximal effective concentration measured in molar (M). For compounds tested in more than one experimental run, the pEC50 value is reported as an average.

| SMILES | EC50 [nM] |
| --- | --- |
| CC(C)N(C)[C@@H]1CC[C@H](N2CC[C@H](Nc3ncnc4ccc(C(F)(F)F)cc34)C2=O)[C@H](NC(=O)c2cnn(C3CCN(CCOCCOCCOCCNC(=O)[C@H]4CC(=O)N(C)[C@@H]4c4cccnc4)CC3)c2)C1 [Example 129, N-((1R,2S,5R)-5-(Isopropyl(methyl)amino)-2-((S)-2-oxo-3-((6-(trifluoromethyl)quinazolin-4-yl)amino)pyrrolidin-1-yl)cyclohexyl)-1-(1-(1-((2S,3S)-1-methyl-5-oxo-2-(pyridin-3-yl)pyrrolidin-3-yl)-1-oxo-5,8,11-trioxa-2-azatridecan-13-yl)piperidin-4-yl)-1H-pyrazole-4-carboxamide] | 5.01 |
| CC(C)N(C)[C@@H]1CC[C@H](N2CC[C@H](Nc3ncnc4ccc(C(F)(F)F)cc34)C2=O)[C@H](NC(=O)CCCOC[C@H]2CC[C@H](COCCNC(=O)[C@H]3CC(=O)N(C)[C@@H]3c3cccnc3)CC2)C1 [Example 58] | 50.1 |
| CC(C)N(C)[C@@H]1CC[C@H](N2CC[C@H](Nc3ncnc4ccc(C(F)(F)F)cc34)C2=O)[C@H](NC(=O)C2CCN(c3cnc(NCCOCCOCCNC(=O)[C@H]4CC(=O)N(C)[C@@H]4c4cccnc4)cn3)CC2)C1 [Example 162, N-((1R,2S,5R)-5-(Isopropyl(methyl)amino)-2-((S)-2-oxo-3-((6-(trifluoromethyl)quinazolin-4-yl)amino)pyrrolidin-1-yl)cyclohexyl)-1-(5-((2-(2-(2-((2S,3S)-1-methyl-5-oxo-2-(pyridin-3-yl)pyrrolidine-3-carboxamido)ethoxy)ethoxy)ethyl)amino)pyrazin-2-yl)piperidine-4-carboxamide] | 1.58 |
| CC(C)N(C)[C@@H]1CC[C@H](N2CC[C@H](Nc3ncnc4ccc(C(F)(F)F)cc34)C2=O)[C@H](NC(=O)[C@H]2CC[C@@H](C(=O)NCCCN3CCN(CCCNC(=O)[C@H]4CC(=O)N(C)[C@@H]4c4cccnc4)CC3)CC2)C1 [Example 150, (1 s,4S)-N^1-((1R,2S,5R)-5-(Isopropyl(methyl)amino)-2-((S)-2-oxo-3-((6-(trifluoromethyl)quinazolin-4-yl)amino)pyrrolidin-1-yl)cyclohexyl)-N^4-(3-(4-(3-((2S,3S)-1-methyl-5-oxo-2-(pyridin-3-yl)pyrrolidine-3-carboxamido)propyl)piperazin-1-yl)propyl)cyclohexane-1,4-dicarboxamide] | 3.16 |
| CC(C)N(C)[C@@H]1CC[C@H](N2CC[C@H](Nc3ncnc4ccc(C(F)(F)F)cc34)C2=O)[C@H](NC(=O)CCCOCC23CCC(COCCNC(=O)[C@H]4CC(=O)N(C)[C@@H]4c4cccnc4)(CC2)CC3)C1 [Example 59] | 251 |
| CC(C)N(C)[C@@H]1CC[C@H](N2CC[C@H](Nc3ncnc4ccc(C(F)(F)F)cc34)C2=O)[C@H](NC(=O)C2CCC3(CC2)CCN(CCOCCOCCNC(=O)[C@H]2CC(=O)N(C)[C@@H]2c2cccnc2)CC3)C1 [Example 93] | 3.98 |
| CC(C)N(C)[C@@H]1CC[C@H](N2CC[C@H](Nc3ncnc4ccc(C(F)(F)F)cc34)C2=O)[C@H](NC(=O)[C@H]2CC[C@H](N3CCN(C(=O)CCOCCOCCNC(=O)[C@H]4CC(=O)N(C)[C@@H]4c4cccnc4)CC3)CC2)C1 [Example 96, (2S,3S)-N-(2-(2-(3-(4-((1R,4r)-4-(((1R,2S,5R)-5-(Isopropyl(methyl)amino)-2-((S)-2-oxo-3-((6-(trifluoromethyl)quinazolin-4-yl)amino)pyrrolidin-1-yl)cyclohexyl)carbamoyl)cyclohexyl)piperazin-1-yl)-3-oxopropoxy)ethoxy)ethyl)-1-methyl-5-oxo-2-(pyridin-3-yl)pyrrolidine-3-carboxamide] | 6.31 |
| CC(C)N(C)[C@@H]1CC[C@H](N2CC[C@H](Nc3ncnc4ccc(C(F)(F)F)cc34)C2=O)[C@H](NC(=O)CCCCCCCCNCCOCCOCCOCCOCCNC(=O)[C@H]2CC(=O)N(C)[C@@H]2c2cccnc2)C1 [Example 195, (2S,3S)-N-(24-(((1R,2S,5R)-5-(Isopropyl(methyl)amino)-2-((S)-2-oxo-3-((6-(trifluoromethyl)quinazolin-4-yl)amino)pyrrolidin-1-yl)cyclohexyl)amino)-24-oxo-3,6,9,12-tetraoxa-15-azatetracosyl)-1-methyl-5-oxo-2-(pyridin-3-yl)pyrrolidine-3-carboxamide, 3Trifluoroacetic acid salt] | 0.158 |
| CC(C)N(C)[C@@H]1CC[C@H](N2CC[C@H](Nc3ncnc4ccc(C(F)(F)F)cc34)C2=O)[C@H](NC(=O)CNC(=O)[C@H]2CC[C@@H](NC(=O)COCCOCCNC(=O)[C@H]3CC(=O)N(C)[C@@H]3c3cccnc3)CC2)C1 [Example 136, (2S,3S)-N-(2-(2-(2-(((1S,4R)-4-((2-(((1R,2S,5R)-5-(Isopropyl(methyl)amino)-2-((S)-2-oxo-3-((6-(trifluoromethyl)quinazolin-4-yl)amino)pyrrolidin-1-yl)cyclohexyl)amino)-2-oxoethyl)carbamoyl)cyclohexyl)amino)-2-oxoethoxy)ethoxy)ethyl)-1-methyl-5-oxo-2-(pyridin-3-yl)pyrrolidine-3-carboxamide] | 4.91 |
| CN1C(=O)C[C@H](C(=O)NCCOCCOCCOCCOCCOCCOCCOCCOCCC(=O)N[C@@H]2C[C@H](NC(C)(C)C)CC[C@@H]2N2CC[C@H](Nc3ncnc4ccc(C(F)(F)F)cc34)C2=O)[C@H]1c1cccnc1 [Example 36, (2S,3S)-N-(27-(((1R,2S,5R)-5-(tert-Butylamino)-2-((S)-2-oxo-3-((6-(trifluoromethyl)quinazolin-4-yl)amino)pyrrolidin-1-yl)cyclohexyl)amino)-27-oxo-3,6,9,12,15,18,21,24-octaoxaheptacosyl)-1-methyl-5-oxo-2-(pyridin-3-yl)pyrrolidine-3-carboxamide] | 3.98 |
| CC(C)N(C)[C@@H]1CC[C@H](N2CC[C@H](Nc3ncnc4ccc(C(F)(F)F)cc34)C2=O)[C@H](NC(=O)[C@H]2CC[C@H](N3CCN(C(=O)CCCCCCCCNC(=O)[C@H]4CC(=O)N(C)[C@@H]4c4cccnc4)CC3)CC2)C1 [Example 155] | 1.58 |
| CC(C)N(C)[C@@H]1CC[C@H](N2CC[C@H](Nc3ncnc4ccc(C(F)(F)F)cc34)C2=O)[C@H](NC(=O)[C@H]2CC[C@@H](NC(=O)C3CCC4(CC3)CCN(CCNC(=O)[C@H]3CC(=O)N(C)[C@@H]3c3cccnc3)CC4)CC2)C1 [Example 170, N-((1S,4s)-4-(((1R,2S,5R)-5-(Isopropyl(methyl)amino)-2-((S)-2-oxo-3-((6-(trifluoromethyl)quinazolin-4-yl)amino)pyrrolidin-1-yl)cyclohexyl)carbamoyl)cyclohexyl)-3-(2-((2S,3S)-1-methyl-5-oxo-2-(pyridin-3-yl)pyrrolidine-3-carboxamido)ethyl)-3-azaspiro[5.5]undecane-9-carboxamide] | 1 |
| CC(C)N(C)[C@@H]1CC[C@H](N2CC[C@H](Nc3ncnc4ccc(C(F)(F)F)cc34)C2=O)[C@H](NC(=O)[C@H]2CC[C@H](C3CCN(CCOCCOCCNC(=O)[C@H]4CC(=O)N(C)[C@@H]4c4cccnc4)CC3)CC2)C1 [Example 189, (2S,3S)-N-(2-(2-(2-(4-((1R,4r)-4-(((1R,2S,5R)-5-(Isopropyl(methyl)amino)-2-((S)-2-oxo-3-((6-(trifluoromethyl)quinazolin-4-yl)amino)pyrrolidin-1-yl)cyclohexyl)carbamoyl)cyclohexyl)piperidin-1-yl)ethoxy)ethoxy)ethyl)-1-methyl-5-oxo-2-(pyridin-3-yl)pyrrolidine-3-carboxamide] | 6.31 |
| CC(C)N(C)[C@@H]1CC[C@H](N2CC[C@H](Nc3ncnc4ccc(C(F)(F)F)cc34)C2=O)[C@H](NC(=O)c2cccc(NCCOCCOCCOCCOCCNC(=O)[C@H]3CC(=O)N(C)[C@@H]3c3cccnc3)n2)C1 [Example 123, N-((1R,2S,5R)-5-(Isopropyl(methyl)amino)-2-((S)-2-oxo-3-((6-(trifluoromethyl)quinazolin-4-yl)amino)pyrrolidin-1-yl)cyclohexyl)-6-((1-((2S,3S)-1-methyl-5-oxo-2-(pyridin-3-yl)pyrrolidin-3-yl)-1-oxo-5,8,11,14-tetraoxa-2-azahexadecan-16-yl)amino)picolinamide] | 5.01 |
| CN1C(=O)C[C@H](C(=O)NCCC(=O)NCCOCCOCCC(=O)N[C@H]2CC[C@@H](C(=O)N[C@@H]3C[C@H](NC(C)(C)C)CC[C@@H]3N3CC[C@H](Nc4ncnc5ccc(C(F)(F)F)cc45)C3=O)CC2)[C@H]1c1cccnc1 [Example 51] | 2 |
| CC(C)N(C)[C@@H]1CC[C@H](N2CC[C@H](Nc3ncnc4ccc(C(F)(F)F)cc34)C2=O)[C@H](NC(=O)C[C@H]2CC[C@H](NC(=O)CCOCCOCCOCCNC(=O)[C@H]3CC(=O)N(C)[C@@H]3c3cccnc3)CC2)C1 [Example 33] | 4.54 |

Source: patent US20250136722A1, “CYTOTOXICITY TARGETING CHIMERAS” (GLAXOSMITHKLINE INTELLECTUAL PROPERTY DEVELOPMENT LIMITED, priority 2021, published 2025)
